Patent publication EP0528615A1, “Cribrostatins 1 and 2” (ARIZONA BOARD OF REGENTS, priority 1991, dated 1993)
Converted amounts (≈) assume the structure as drawn.

Assays:
[1] = test system: P388 murine lymphocytic leukemia; experiment: in vitro PS leukemia cell growth inhibition (NCI P388 protocol); type: cell-based; conditions: Mus musculus, isolated pure compounds, read-out: PS ED₅₀
Source text: In early research devoted to the first systematic investigation of marine animals as new sources of potential anticancer drugs the phylum Porifera rapidly became of increasing importance. Subsequent detection of antineoplastic activity in some of these sponge species led to the isolation of such cell growth inhibitory compounds, as macrocyclic lactones, pyrroles, peptides, and proteins. Meanwhile the isolation of heterocyclic marine sponge constituents such as pyrroles, imidazoles, oxazoles, indoles, pyridines, quinolizidines, pteridines, acridines, other nitrogen systems and quinones has been rapidly accelerating. So far ten isoquinolinequinones have been isolated from blue species of the sponge genera Reniera and Xestospongia. In 1986 an exploratory survey of marine Porifera off remote islands in the Republic of the Maldives was conducted which located a deep blue colored specimen of Cribrochalina sp. (Haplosclerida order) that afforded an orange ethanol extract. The encrusting sponge was found in areas of strong (and dangerous) currents to -45m in the South side of East reef passages and yielded and ethanol extract that provided 40% life extension (at mg/kg) against the U.S. National Cancer Institute's in vivo murine P388 lymphocytic leukemia (PS system). […]

[2] = test system: NCI human cancer cell lines; experiment: NCI human cancer cell lines, cytostatic activity (general statement); type: cell-based
Source text: (§1) Presently the Cribrochalina sp. constituents are undergoing detailed antineoplastic evaluation. […] (See: Boyd, status of the NCI preclinical antitumor drug discovery screen: implications for selection of new agents for clinical trial. In: DeVita et al., Principles and Practices of Oncology, update series, Vol. 3, No. 10, Lippincott, Philadelphia 1989, pp1-12; and Boyd et al., Data display and analysis strategies from NCI disease oriented in vitro antitumor drug screen. In:Valeriote et al., Antitumor Drug Discovery and Development, Kluwer Academic Press, Amsterdam, 1990.) The human tumor cell line panel currently used for these studies consists of a diverse array of 60 different cell lines representing eight major cancer subtypes.

[3] = test system: colon cancer (CoLo 205); experiment: NCI panel cell lines, colon cancer; type: cell-based, human
Source text: as §1

[4] = test system: melanoma cancer line (LOX-1MCI; MALME-3M; M14; M19-MEL; SK-MEL-2; KS-MEL-28; SK-MEL-5; UACC_257; UACC-62); type: cell-based, human
Source text: as §1

[5] = test system: non-small lung cancer (A549/ATCC, HOP-18, and NCI-H460); experiment: NCI panel cell lines, non-small lung cancer; type: cell-based, human; conditions: non-small lung cancer (A549/ATCC, HOP-18, NCI-H460)
Source text: as §1

SMILES | IC50 [1] | cytostatic properties [2] | result in NCI panel cell line [3] | LC₅₀ [4] | sensitivity relative to panel mean ([4]; all nine melanoma lines of the 60 cell line panel) | result in NCI panel cell line ([4]; melanoma (MALME-3M, M14, M19-MEL, SK-MEL-2, SK-MEL-28, UACC-257, UACC-62)) | result in NCI panel cell line [5]
CC1=C(N)C(=O)c2c(ccnc2C)C1=O [Cribrostatin 1] | 1.58 µg/mL (≈ 7.81 µM) | cytostatic properties | especially favorable results | 10⁻⁵ - 10⁻⁶ | sensitivity greater than the panel mean | especially favorable results | especially favorable results
CCOC1=C(C)C(=O)c2cc(=O)n(C)cc2C1=O [Cribrostatin 2] | 2.73 µg/mL (≈ 11 µM) | cytostatic properties |  |  |  |  | 
